Measured values reported in US20120009280A1, “METHOD OF REDUCING THE RATE OF DEGRADATION OF A BIOLOGICAL MATERIAL” (Bio-Energy Ingredients Limited, priority 2009, published 2012).

How the values were obtained:
mould = assay: Mould count of spent brewer's / wet distiller's grains stored at ambient temperature; format: cell-based
Description: (§1) Samples of Portion 1 (“AR”), Portion 3 (“SO”) and Portion 5 (“SH”) were then delivered to a microbiological testing facility about 15 kilometres from the treatment laboratory. Each was tested for initial total microbial, yeast and mould counts, respectively.
(§2) Separate untreated samples were similarly stored under insect-proof screens at ambient temperature for seven days (as shown in Tables 1 and 2). During the trial period the ambient temperature ranged from 11 to 33 degrees C.
(§3) The free moisture content on the initial spent brewer's grains was determined to be 78.1% m/m. After exposure to the environment for seven days, all of the samples were tested at a South African National Accreditation System (SANAS) approved microbiological testing facility. Each was tested for total micro-organism, yeast and mould counts to determine the affect of the various treatments. A similar procedure to that described in K. A. Rosentrater et al, Food Bioprocess Technol (2008) was used for the microbiological evaluation.
(§4) At the laboratory, the samples were thoroughly mixed and initially split into a first portion (Portion 1) and a second portion (Portion 2). Portion 1 was left untreated. A sample of Portion 1, was delivered immediately to a microbiological testing facility about 15 kilometres away from the treatment laboratory and was tested for initial total microbial, yeast and mould counts, respectively. No water removal prior to treatment was done in this experiment as was the case in Example 8 wherein a similar wet material was partially dewatered by pressing and the residue treated with 10% (w/w/) calcium oxide.
Samples from Portion 2 were subjected to treatment with varying amounts of a powdered, commercially-available calcium oxide containing approximately 94% calcium oxide (CaO) as shown in Table 32. […] The samples were stored in batches (according to the calcium oxide treatment) under insect-proof screens at ambient temperature for fifty six days. Separate untreated samples were similarly stored under insect-proof screens at ambient temperature for a total of 56 days. During the trial period the ambient temperature ranged from 10 to 30 degrees C. As this period was the southern hemisphere spring/early summer, the humidity as well as ambient temperatures varied widely.
as §3, with “79.4%” for “78.1%”
(§5) Samples from each treatment were drawn every seven days. No further calcium oxide treatment or agitation took place after the initial mix. In each case the entire sample was isolated and delivered to the microbiological testing facility.
(§6) The calcium oxide treatment trial described in Example 9 wherein wet distiller's grains were treated with 2.5%, 5% and 10.0% calcium oxide, respectively, versus untreated material was repeated using lower doses of calcium oxide. In this trial the same source of wet distiller's grains (again with now partial water removal prior to treatment) was treated. Also, the same protocol as described in Example 9 was applied, but at lower doses of calcium oxide i.e. 0.5%, 1.0%, 1.5%, 2.0% and 2.5%, respectively, versus untreated material.
(§7) In this trial the same source of wet distiller's grains (again with now partial water removal prior to treatment) was treated. Also, the same protocol as described in Example 9 was applied.

[1] = pH of suspensions of grain samples in distilled water or PBS; settings: for pH: 1% (w/w) in distilled water
Description: The untreated sample (A) was compared visually against the corresponding quicklime-treated sample (B).
On Day 7, 10 g amounts of each sample were suspended in either 90 ml PBS or 90 ml sterile distilled water and shaken for 10 minutes. The pH of each suspension was then measured and compared.
On Day 9, 10 g of each sample was suspended in 90 ml PBS and shaken for 10 minutes. The pH was measured.

yeast = assay: Yeast count of spent brewer's / wet distiller's grains stored at ambient temperature; format: cell-based
Description: as §1, §2, §3, §4
Samples from Portion 2 were subjected to treatment with varying amounts of a powdered, commercially-available calcium oxide containing approximately 94% calcium oxide (CaO) as shown in Table 32. The treatments varied from 2.5 to 10% (w/w) calcium oxide addition. The samples were stored in batches (according to the calcium oxide treatment) under insect-proof screens at ambient temperature for fifty six days. Separate untreated samples were similarly stored under insect-proof screens at ambient temperature for a total of 56 days. During the trial period the ambient temperature ranged from 10 to 30 degrees C. As this period was the southern hemisphere spring/early summer, the humidity as well as ambient temperatures varied widely.
as §3, with “79.4%” for “78.1%”
as §5, §6, §7

[2] = wet distiller's grains, 0.5% CaO (w/w), day 2
[3] = wet distiller's grains, 1.0% CaO (w/w), day 1
[4] = wet distiller's grains, 1.5% CaO (w/w), day 10
[5] = wet distiller's grains, 2.0% CaO (w/w), day 2
[6] = wet distiller's grains, 2.5% CaO (w/w), day 14
[7] = wet distiller's grains, 5.0% CaO (w/w), day 21
[8] = wet distiller's grains, 10.0% CaO (w/w), day 14

SMILES: [O]=[Ca] [calcium oxide]
- Mould Count (mould; 5% CaO (w/w) powder, week 1): 10 cfu/gram
- Mould Count (mould; 5% CaO (w/w) powder, week 2): 10 cfu/gram
- Mould Count (mould; 5% CaO (w/w) powder, week 3): 10 cfu/gram
- Mould Count (mould; 5% CaO (w/w) powder, week 4): 10 cfu/gram
- Mould Count (mould; 5% CaO (w/w) powder, week 5): 10 cfu/gram
- Mould Count (mould; wet distiller's grains, 0.5% CaO (w/w), day 1): <10 cfu/gram
- Mould Count (mould; [2]): 30 cfu/gram
- Mould Count (mould; wet distiller's grains, 0.5% CaO (w/w), day 3): 100 cfu/gram
- Mould Count (mould; wet distiller's grains, 0.5% CaO (w/w), day 6): 37000 cfu/gram
- Mould Count (mould; wet distiller's grains, 0.5% CaO (w/w), day 8): <10 cfu/gram
- Mould Count (mould; [3]): <10 cfu/gram
- Mould Count (mould; wet distiller's grains, 1.0% CaO (w/w), day 2): <10 cfu/gram
- Mould Count (mould; wet distiller's grains, 1.0% CaO (w/w), day 3): <10 cfu/gram
- Mould Count (mould; wet distiller's grains, 1.0% CaO (w/w), day 6): <10 cfu/gram
- Mould Count (mould; wet distiller's grains, 1.0% CaO (w/w), day 8): <10 cfu/gram
- Mould Count (mould; wet distiller's grains, 1.0% CaO (w/w), day 10): 91000 cfu/gram
- Mould Count (mould; wet distiller's grains, 1.5% CaO (w/w), day 1): <10 cfu/gram
- Mould Count (mould; wet distiller's grains, 1.5% CaO (w/w), day 2): <10 cfu/gram
- Mould Count (mould; wet distiller's grains, 1.5% CaO (w/w), day 3): <10 cfu/gram
- Mould Count (mould; wet distiller's grains, 1.5% CaO (w/w), day 6): <10 cfu/gram
- Mould Count (mould; wet distiller's grains, 1.5% CaO (w/w), day 8): <10 cfu/gram
- Mould Count (mould; [4]): <110 cfu/gram
- Mould Count (mould; wet distiller's grains, 2.0% CaO (w/w), day 1): <10 cfu/gram
- Mould Count (mould; [5]): <10 cfu/gram
- Mould Count (mould; wet distiller's grains, 2.0% CaO (w/w), day 3): <10 cfu/gram
- Mould Count (mould; wet distiller's grains, 2.0% CaO (w/w), day 6): <10 cfu/gram
- Mould Count (mould; wet distiller's grains, 2.0% CaO (w/w), day 8): <10 cfu/gram
- Mould Count (mould; wet distiller's grains, 2.0% CaO (w/w), day 10): <10 cfu/gram
- Mould Count (mould; wet distiller's grains, 2.5% CaO (w/w), day 1): <10 cfu/gram
- Mould Count (mould; wet distiller's grains, 2.5% CaO (w/w), day 2): <10 cfu/gram
- Mould Count (mould; wet distiller's grains, 2.5% CaO (w/w), day 3): <10 cfu/gram
- Mould Count (mould; wet distiller's grains, 2.5% CaO (w/w), day 6): <10 cfu/gram
- Mould Count (mould; wet distiller's grains, 2.5% CaO (w/w), day 7): 10 cfu/gram
- Mould Count (mould; wet distiller's grains, 2.5% CaO (w/w), day 8): <10 cfu/gram
- Mould Count (mould; wet distiller's grains, 2.5% CaO (w/w), day 10): <10 cfu/gram
- Mould Count (mould; [6]): 14,000 cfu/gram
- Mould Count (mould; wet distiller's grains, 2.5% CaO (w/w), day 21): 170,000 cfu/gram
- Mould Count (mould; wet distiller's grains, 2.5% CaO (w/w), day 42): 850,000 cfu/gram
- Mould Count (mould; wet distiller's grains, 2.5% CaO (w/w), day 49): 320,000 cfu/gram
- Mould Count (mould; wet distiller's grains, 2.5% CaO (w/w), day 56): 1,240,000 cfu/gram
- Mould Count (mould; wet distiller's grains, 5.0% CaO (w/w), day 7): 10 cfu/gram
- Mould Count (mould; wet distiller's grains, 5.0% CaO (w/w), day 14): 10 cfu/gram
- Mould Count (mould; [7]): 150 cfu/gram
- Mould Count (mould; wet distiller's grains, 5.0% CaO (w/w), day 42): 20 cfu/gram
- Mould Count (mould; wet distiller's grains, 5.0% CaO (w/w), day 49): 90 cfu/gram
- Mould Count (mould; wet distiller's grains, 5.0% CaO (w/w), day 56): 90 cfu/gram
- Mould Count (mould; wet distiller's grains, 10.0% CaO (w/w), day 7): 10 cfu/gram
- Mould Count (mould; [8]): 10 cfu/gram
- Mould Count (mould; wet distiller's grains, 10.0% CaO (w/w), day 21): 10 cfu/gram
- Mould Count (mould; wet distiller's grains, 10.0% CaO (w/w), day 42): 70 cfu/gram
- Mould Count (mould; wet distiller's grains, 10.0% CaO (w/w), day 49): 80 cfu/gram
- Mould Count (mould; wet distiller's grains, 10.0% CaO (w/w), day 56): 16 cfu/gram
- pH ([1]; 0.5% CaO (w/w), day 1): 7.97
- pH ([1]; 0.5% CaO (w/w), day 2): 8.06
- pH ([1]; 0.5% CaO (w/w), day 3): 7.63
- pH ([1]; 0.5% CaO (w/w), day 6): 7.38
- pH ([1]; 0.5% CaO (w/w), day 8): 7.80
- pH ([1]; 1.0% CaO (w/w), day 1): 8.86
- pH ([1]; 1.0% CaO (w/w), day 2): 8.82
- pH ([1]; 1.0% CaO (w/w), day 3): 9.19
- pH ([1]; 1.0% CaO (w/w), day 6): 9.21
- pH ([1]; 1.0% CaO (w/w), day 8): 7.89
- pH ([1]; 1.0% CaO (w/w), day 10): 8.27
- pH ([1]; 1.5% CaO (w/w), day 1): 9.10
- pH ([1]; 1.5% CaO (w/w), day 2): 9.15
- pH ([1]; 1.5% CaO (w/w), day 3): 9.95
- pH ([1]; 1.5% CaO (w/w), day 6): 9.84
- pH ([1]; 1.5% CaO (w/w), day 8): 9.10
- pH ([1]; 1.5% CaO (w/w), day 10): 10.84
- pH ([1]; 2.0% CaO (w/w), day 1): 10.68
- pH ([1]; 2.0% CaO (w/w), day 2): 10.10
- pH ([1]; 2.0% CaO (w/w), day 3): 9.48
- pH ([1]; 2.0% CaO (w/w), day 6): 11.22
- pH ([1]; 2.0% CaO (w/w), day 8): 9.76
- pH ([1]; 2.0% CaO (w/w), day 10): 9.97
- pH ([1]; 2.5% CaO (w/w), day 1): 11.48
- pH ([1]; 2.5% CaO (w/w), day 2): 11.08
- pH ([1]; 2.5% CaO (w/w), day 3): 11.41
- pH ([1]; 2.5% CaO (w/w), day 6): 11.55
- pH ([1]; 2.5% CaO (w/w), day 8): 10.29
- pH ([1]; 2.5% CaO (w/w), day 10): 8.87
- pH ([1]; 5% CaO (w/w) powder, week 1): 11.36
- pH ([1]; 5% CaO (w/w) powder, week 2): 11.00
- pH ([1]; 5% CaO (w/w) powder, week 3): 12.20
- pH ([1]; 5% CaO (w/w) powder, week 4): 11.61
- pH ([1]; 5% CaO (w/w) powder, week 5): 11.34
- pH of treated wet distiller's grains ([1]; calcium oxide 0.5% (w/w), Example 14): below 8
- Yeast Count (yeast; 5% CaO (w/w) powder, week 4): 10 cfu/gram
- Yeast Count (yeast; [2]): <10 cfu/gram
- Yeast Count (yeast; [3]): <10 cfu/gram
- Yeast Count (yeast; [4]): <10 cfu/gram
- Yeast Count (yeast; [5]): <10 cfu/gram
- Yeast Count (yeast; [6]): 52,000 cfu/gram
- Yeast Count (yeast; [7]): 10 cfu/gram
- Yeast Count (yeast; [8]): 120 cfu/gram
